Experimental data reported in patent US11419852B2, “Beta-lactam compounds or salts thereof for use in long-acting prevention or treatment of a glucose metabolism disorder” (GLYCOLYSIS BIOMED CO., LTD., priority 2019, dated 2022).
Marks after values point to notes of the source that are not given here.

Legend:
Type in all cases: in vivo
db/db mice [1] = test: Plasma biochemical parameters (AST, ALT, BUN, Cr, HbA1c)
Procedure: Inflammatory markers such as serum aspartate aminotransferase (AST), alanine aminotransferase (ALT), blood urea nitrogen (BUN), creatinine (Cr), and hemoglobin Alc (HbAlc) were measured using a BMC-Hitachi 717 chemistry auto analyzer.

[2] = Body weight of mice recorded weekly; details: Ex 3: db/db mice, daily dosing 3 weeks at doses of Table 10
Procedure: (§1) Four to five weeks old db/db mice (BKS.Cg-Dock7^m+/+Lepr^db/JNarl) and m/m mice (BKS.Cg-Dock7^m+/Dock7^m+) were obtained from National Laboratory Animal Center ([…], Taiwan). […] PMI Nutrition International, Brentwood, Mo.) and water ad libitum. […] The mouse body weight (bw) and the amounts of water and food intake were recorded weekly for the entire study period.

[3] = Food and water intake of mice; details: for Food intake in db/db mice / Water intake in db/db mice: Ex 3, P<0.05; for Diet intake / Water intake: Ex 3: db/db mice, daily dosing 3 weeks at doses of Table 10
Procedure: as §1

db/db mice [4] = test: Oral glucose tolerance test (OGTT); set-up: OGTT AUC: unit not given here; details: for OGTT AUC: Ex 3: db/db mice, daily dosing 3 weeks at doses of Table 10
Procedure: Four to five weeks old db/db mice (BKS.Cg-Dock7^m+/+Lepr^db/JNarl) and m/m mice (BKS.Cg-Dock7^m+/Dock7^m+) were obtained from National Laboratory Animal Center ([…], Taiwan). […] PMI Nutrition International, Brentwood, Mo.) and water ad libitum. […] Blood was sampled from the tail vein, and FPG levels were measured and recorded as the basic blood glucose levels. […] The total area under the curve (AUC) in OGTT was plotted and calculated by the Area Under Coordinates Program (StatsToDo Server, Department of Obstetrics and Gynecology, Chinese University of Hong Kong).

[5] = Ex 3, after the treatments had been stopped for 6 weeks
[6] = Ex 3: db/db mice, daily dosing 3 weeks at doses of Table 10, week 9

Molecule	Level of AST (db/db mice [1]; [5])	Level of HbA1c (db/db mice [1]; [5])	ALT (db/db mice [1]; [6])	AST (db/db mice [1]; [6])	BUN (db/db mice [1]; [6])	Creatinine (db/db mice [1]; [6])	HbA1c (db/db mice [1]; [6])	Body weight ([2]; Baseline)	Body weight ([2]; Final)	Body weight ([2]; Week 3)	Body weight ([2]; Week 6 (stopped for 3 weeks))	Body weight ([2]; Week 9 (stopped for 6 weeks))	Food intake in db/db mice [3]	Water intake in db/db mice [3]	Diet intake [3]	Water intake [3]	OGTT AUC (db/db mice [4]; Week 6 (stopped for 3 weeks))	OGTT AUC (db/db mice [4]; Week 9 (stopped for 6 weeks))	ALT (db/db mice [1]; mouse, in vivo)	AST (db/db mice [1]; mouse, in vivo)	also measured
CO/N=C(\C(=O)N[C@@H]1C(=O)N2C(C(=O)O)=C(CSc3nc(=O)c(=O)[nH]n3C)CS[C@H]12)c1csc(N)n1 [CEFT, ceftriaxone]	reduce	reduce	80 ± 7^bc U/L	104 ± 10^ac U/L	38 ± 2^bc mg/dL	0.428 ± 0.01^b mg/dL	4.9 ± 0.2^c %	30.0 ± 1^b	37.8 ± 2^c	32.9 ± 1^cd	34.1 ± 2^b	38.8 ± 2^c	significantly reduced	significantly reduced	5.0 ± 1^b g/mice/day	7.1 ± 1^b mL/mice/day	1276 ± 69^b	1483 ± 37^ce			Level of ALT (db/db mice [1]; [5]): reduce; Level of BUN (db/db mice [1]; [5]): reduce; Level of Cr (db/db mice [1]; [5]): reduce
C[C@@H](O)[C@H]1C(=O)N2C(C(=O)O)=C(S[C@@H]3CN[C@H](C(=O)N(C)C)C3)[C@H](C)[C@H]12 [MER, meropenem hydrate]	reduce		89 ± 5^bcd U/L	93 ± 8^ab U/L	43 ± 2^bd mg/dL	0.488 ± 0.03^cde mg/dL	6.9 ± 0.3^e %	28.3 ± 1^b	36.0 ± 2^bc	33.6 ± 1^cd	37.1 ± 1b^c	38.2 ± 2^c			5.9 ± 1^c g/mice/day	14.7 ± 1^e mL/mice/day	1599 ± 39^c	1648 ± 61^def			
CC1(C)S[C@@H]2[C@H](NC(=O)Cc3ccccc3)C(=O)N2[C@H]1C(=O)O [PEN, penicillin G]		reduce					4.2 ± 0.2^a %	31.1 ± 1^b	32.2 ± 1^b	25.7 ± 1^b	24.6 ± 1^a	32.4 ± 1^b	significantly reduced	significantly reduced	4.0 ± 0.9^a g/mice/day	8.3 ± 4^c mL/mice/day	1088 ± 91^b	1181 ± 69^b	72 ± 20^ab U/L	169 ± 24^de U/L	BUN (db/db mice [1]; mouse, in vivo): 41 ± 5^bd mg/dL; Creatinine (db/db mice [1]; mouse, in vivo): 0.424 ± 0.02^ab mg/dL; Regulation of blood glucose homeostasis (OGTT glucose vs G8) (db/db mice [4]; Ex 3, medications stopped for at least 3 weeks (FIG. 6A, 6B)): still effective
tienam																			104 ± 10^cd U/L	212 ± 43^e U/L	BUN (db/db mice [1]; mouse, in vivo): 47 ± 4^d mg/dL; Creatinine (db/db mice [1]; mouse, in vivo): 0.473 ± 0.05^be mg/dL
